The text below walks through data of publication PMC4519791, “Functional diversity and properties of multiple xylanases from Penicillium oxalicum GZ-2” (Scientific Reports, 2015).

Holding throughout (assay type): biochemical
For one assay, the target named is T1, xyn10A (Penicillium oxalicum, UniProt U3N115).
T1 construct: mature enzyme, GH10 catalytic domain without CBM; pPICZalphaA alpha-factor secretion, 6xHis tag, Pichia pastoris, Ni-NTA
Briefly: TLC of hydrolysis products. As to conditions: 1 mg/ml substrate, 12 h; 50 mM acetate pH 4.0, 40 °C (Figure 7 legend) or optimal pH, 45 °C (Methods).

For a further assay, the target named is T2, xyn11B (Penicillium oxalicum, UniProt E7EF85).
T2 construct: gene xynB; mature enzyme, GH11 catalytic domain, Ser/Thr linker and CBM1; pPICZalphaA alpha-factor secretion, 6xHis tag, Pichia pastoris, Ni-NTA
Description: TLC of hydrolysis products. As to conditions: 1 mg/ml substrate, 12 h; 50 mM acetate pH 4.0, 40 °C (Figure 7 legend) or optimal pH, 45 °C (Methods).

Another assay concerns the target T3, xyn11A (Penicillium oxalicum, UniProt U3MZH8).
T3 construct: GH11 catalytic domain without CBM; 23 kDa by SDS-PAGE; pPICZalphaA alpha-factor secretion, 6xHis tag, Pichia pastoris, Ni-NTA
Briefly: TLC of hydrolysis products. The note with it: 1 mg/ml substrate, 12 h; 50 mM acetate pH 4.0, 40 °C (Figure 7 legend) or optimal pH, 45 °C (Methods).

A further assay addresses T4, xyn10B (Penicillium oxalicum, UniProt U3MZ77).
T4 construct: mature enzyme, GH10 catalytic domain, Ser/Thr linker and CBM1; pPICZalphaA alpha-factor secretion, 6xHis tag, Pichia pastoris, Ni-NTA
T4 sequence (U3MZ77 23-410): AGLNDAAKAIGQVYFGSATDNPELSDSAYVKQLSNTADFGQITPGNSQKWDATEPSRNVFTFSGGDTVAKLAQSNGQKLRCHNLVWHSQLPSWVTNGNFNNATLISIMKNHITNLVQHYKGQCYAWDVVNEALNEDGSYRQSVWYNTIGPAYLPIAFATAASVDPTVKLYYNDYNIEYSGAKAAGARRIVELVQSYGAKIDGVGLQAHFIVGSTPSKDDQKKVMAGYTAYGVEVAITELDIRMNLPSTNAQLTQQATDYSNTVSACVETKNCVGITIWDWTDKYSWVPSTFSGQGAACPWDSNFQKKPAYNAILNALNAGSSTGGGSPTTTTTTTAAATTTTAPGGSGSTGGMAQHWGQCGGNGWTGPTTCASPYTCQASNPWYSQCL
Description: p-nitrophenyl substrate hydrolysis (specific activity). As to conditions: 10 mM substrate; optimal temperature, pH 5.0.

T1 sequence (U3N115 20-330): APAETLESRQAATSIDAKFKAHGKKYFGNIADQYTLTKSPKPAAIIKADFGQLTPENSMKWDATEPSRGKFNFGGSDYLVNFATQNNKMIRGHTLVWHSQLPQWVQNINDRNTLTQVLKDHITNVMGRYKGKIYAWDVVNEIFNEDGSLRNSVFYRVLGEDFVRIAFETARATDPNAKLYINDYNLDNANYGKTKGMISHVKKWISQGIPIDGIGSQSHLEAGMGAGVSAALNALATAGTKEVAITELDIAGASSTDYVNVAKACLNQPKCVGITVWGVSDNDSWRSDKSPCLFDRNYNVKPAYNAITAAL
T2 sequence (E7EF85 20-310): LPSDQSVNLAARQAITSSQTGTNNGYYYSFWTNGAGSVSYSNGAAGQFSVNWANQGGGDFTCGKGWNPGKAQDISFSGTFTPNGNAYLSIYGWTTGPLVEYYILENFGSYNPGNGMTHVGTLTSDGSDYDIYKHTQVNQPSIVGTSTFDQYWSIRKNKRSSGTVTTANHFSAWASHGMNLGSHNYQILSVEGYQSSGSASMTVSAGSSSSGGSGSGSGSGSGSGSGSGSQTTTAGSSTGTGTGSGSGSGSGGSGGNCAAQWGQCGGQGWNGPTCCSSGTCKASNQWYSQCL
T3 sequence (U3MZH8 17-211): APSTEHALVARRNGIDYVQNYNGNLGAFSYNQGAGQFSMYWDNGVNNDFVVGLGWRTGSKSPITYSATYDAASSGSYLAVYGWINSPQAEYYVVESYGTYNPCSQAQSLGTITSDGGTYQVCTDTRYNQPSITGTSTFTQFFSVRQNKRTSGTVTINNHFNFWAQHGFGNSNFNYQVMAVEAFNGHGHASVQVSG

As to `OC1OC[C@@H](O[C@@H]2OC[C@@H](O[C@@H]3OC[C@@H](O)[C@H](O)[C@H]3O)[C@H](O)[C@H]2O)[C@H](O)[C@H]1O` (some centres unmarked) [X3, xylotriose], on xyn10A, the “TLC of hydrolysis products” value was “the two GH10 enzymes rapidly degraded X3, X4, X5 and X6”. Take `OC1OC[C@@H](O[C@@H]2OC[C@@H](O[C@@H]3OC[C@@H](O[C@@H]4OC[C@@H](O)[C@H](O)[C@H]4O)[C@H](O)[C@H]3O)[C@H](O)[C@H]2O)[C@H](O)[C@H]1O` (some centres unmarked) [X4, xylotetraose]: the “TLC of hydrolysis products” value on xyn11B is “hydrolytic products obtained with GH11 xylanase (xyn11B) was similar to that of xyn11A”; at xyn11A it was “X4, X5 and X6 were hydrolyzed to X2 and X3 through xyn11A”. For the molecule `OC1CO[C@@H](OC2CO[C@@H](OC3CO[C@@H](OC4CO[C@@H](OC5CO[C@@H](OC6COC(O)C(O)C6O)C(O)C5O)C(O)C4O)C(O)C3O)C(O)C2O)C(O)C1O` (some centres unmarked) [X6, xylohexaose], the “TLC of hydrolysis products” value on xyn11B was “hydrolytic products obtained with GH11 xylanase (xyn11B) was similar to that of xyn11A”; on xyn10A, “the two GH10 enzymes rapidly degraded X3, X4, X5 and X6”; on xyn11A it was “X4, X5 and X6 were hydrolyzed to X2 and X3 through xyn11A”.

For the molecule `O=[N+]([O-])c1ccc(O[C@@H]2O[C@H](CO)[C@@H](O[C@@H]3O[C@H](CO)[C@@H](O)[C@H](O)[C@H]3O)[C@H](O)[C@H]2O)cc1` [pNPC, p-nitrophenyl β-D-cellobioside], the “p-nitrophenyl substrate hydrolysis (specific activity)” value on xyn10B is “Although xyn10B degraded pNPX and pNPC, the other three enzymes were not active”.

Consider `O=[N+]([O-])c1ccc(O[C@@H]2OC[C@@H](O)[C@H](O)[C@H]2O)cc1` [pNPX, p-nitrophenyl-β-D-xylopyranoside], for which the “p-nitrophenyl substrate hydrolysis (specific activity)” value on xyn10B was “Although xyn10B degraded pNPX and pNPC, the other three enzymes were not active”.
